# Test results from US20130324413A1, “METHOD FOR PROMOTING PLANT GROWTH” (SUMITOMO CHEMICAL COMPANY, LIMITED, priority 2011, published 2013).
# Experiments:
# Format in all cases: in vivo
# [1] = tested on: Basil (cultivar: Sweet Basil; Takii); experiment: Test Example 10: basil seedling spraying, low-temperature stress, fresh weight and damage score; conditions: for Fresh weight of above-ground part: low-temperature stress 3.0° C., non-treated 0.34 g; for Damage score: score 0 (completely killed) to 100 (survived without any damage), survived leaf area, non-treated 17
# Description: Basil seeds (cultivar: Sweet Basil; Takii) were sown in the culture soil (AISAI) in plastic pots (55 mm in diameter×58 mm in height) and grown for 24 days under the following conditions to obtain a basil seedling per pot: temperature, 27° C.; humidity, 50 to 75%; illuminance, about 6,000 lux; day length, 16 hours.
# Compound (1b). was dissolved in dimethylsulfoxide (DMSO) to obtain a DMSO solution of compound (lb) at a 1,000-fold concentration relative to the test concentration. This DMSO solution of compound (1b) was 1,000-fold diluted with water. Then Triton X-100 was added as a surfactant to a final concentration of 0.1%. The spray solution thus prepared was applied in a sufficient amount (15 ml per 3 pots) by means of a handspray.
# As a control, a spray solution without compound (ib) was prepared and then sprayed to the non-treated group. The plants were further grown for 1 day under the following conditions: temperature, 27° C.; humidity, 50 to 75%; illuminance, about 6,000 lux; day length, 16 hours.
# Subsequently, the basil seedlings were placed in a phytotron under the following conditions, to expose the plants to low-temperature stress. • Conditions: “temperature, 3.0° C.; illuminance, 800 lux; • humidity, 50 to 80%”
# The plants were further grown for another 2 days under the following conditions: temperature, 27° C.; humidity, 50 to 75%, illuminance, about 6,000 lux; day length, 16 hours.
# The percentage of the leaf area of the portions of true leaves of the basil seedlings which survived without being damaged was scored as follows: completely killed with 0% of the survived leaf area to the total leaf area: 0; survived without any damage with 100% of the survived leaf area to the total leaf: 100; and scored from 0 to 100 by increment of 1 by visual observation. The scores of three plants were averaged to determine the damage score. The aerial part of the basil seedlings was removed to measure the fresh weight of the above-ground part. The average weight of three individuals was recorded as the fresh weight of the above-ground part.
# [2] = tested on: oilseed rape (Brasicca napus); experiment: Test Example 11: oilseed rape field application, yield of the seeds; conditions: flowable formulation, 250 g per hectare at day 240 (BBCH 63); evaluated day 334; non-treated 4.25 tons/hectare
# From the text: Seeds of oilseed rape (Brasicca napus) were sown at 5.5 kg seeds per hectare and grown. At day 240 after the sowing, at growth stage 63, according to the Biologische Bundesanstalt, Bundessortenamt and CHemical industry (BBCH) scale, the flowable formulation prepared as described in Formulation Example 2 containing compound (1b) was applied in an amount of 250 g per hectare. A group for the treatment measured 2 m×12 m. This group was the present compound-treated group. A group treated with the formulation without compound (1b) was used as the non-treated group, in which plants were cultivated in the same manner as in the treated group.
# At day 334 after the sowing, the yield of the seeds was evaluated. As a result, the yield calculated presuming 9% seed water content was 4.55 tons/hectare in the present compound-treated group, while it was 4.25 tons/hectare in the non-treated group. During the testing, no diseases were observed that affected the yield either in the present compound-treated or non-treated group.
# [3] = tested on: oilseed rape (Brasicca napus); experiment: Test Example 5: oilseed rape field application, percentage of green pods; conditions: flowable formulation, 250 g per hectare at day 253 (BBCH 65); assessed day 323 (BBCH 85); non-treated 12.75%
# From the text: Seeds of oilseed rape (Brasicca napus) were sown and grown. At day 253 after the sowing, at growth stage 65, according to the Biologische Bundesanstalt, Bundessortenamt and CHemical industry (BBCH) scale, the flowable formulation prepared as described in Formulation Example 2 containing compound (1b) was applied in an amount of 250 g per hectare. A plot for the treatment measured 6 m×10 m. This plot was the present compound-treated group. A plot treated with the formulation without compound (1b) was used as the non-treated group, in which plants were cultivated in the same manner as in the present compound-treated group.
# At day 323 after the sowing, when almost all the plants entered growth stage 85, according to the BBCH scale, the percentage of pods remaining green among the pods of the plants was examined and determined in both the present compound-treated and non-treated groups.
# [4] = tested on: Corn (cultivar: DeKalb 61-69); experiment: Test Example 4: field corn foliage spraying, percentage of green leaves; conditions: assessed 143 days after sowing (R6), non-treated 23.8%
# From the text: Corn seeds (cultivar: DeKalb 61-69) were sown at 33,684 seeds per acre and grown. Each plot in the field for treatment measured 10 feet in width and 15.5 feet in length. The treatments were arranged using the Randomized Complete Block Design method with eight replications for each treatment. Groups treated with the formulation without compound (1b) were used as the non-treated groups, in which corn was cultivated in the same manner as in the present compound-treated groups. The flowable formulation prepared as described in Formulation Example 2 was applied by foliage spraying 111 days after the sowing, at developmental stage R3 of maize. The percentage of green leaves among the leaves upper to the lowest ear of corn was determined for each formulation-treated group 143 days after the sowing, at developmental stage R6 of maize. As a result, the percentages were 41.3% and 45.6% on average, respectively, in the groups treated with 100 g and 300 g per hectare of compound (1b), while the percentage was 23.8% on average in the non-treated groups.
# [5] = tested on: Corn (cultivar: Hughes 5813); experiment: Test Example 2: corn seed treatment, amount of harvested grains; conditions: grown 226 days
# Description: Corn (cultivar: Hughes 5813) seeds were separately treated with 25 μg or 125 μg of compound (1b) for each seed. The amount of the compound required for the treatment was determined by calculation assuming 4,000 grains per kg of seeds. The seeds were coated using seed treatment machine HEGE11(produced by Hans-Ulrich Hege). All the seed treatments included Maxim XL (0.167 ounces/100 pounds), Thiram 42S (2.5 ounces/pound), and Cruiser (containing 0.25 mg/seed of thiamethoxam) and CF-Clear polymer at a concentration of 0.5 ounces/pound. The treated seeds were sown and grown for 226 days, and the corn plants were harvested to obtain grains. […] During the testing, no diseases were observed that affected the yield in the present compound-treated group and the non-treated group.
smiles,measurement,setting,value
"CNC(=O)C(OC)c1ccccc1COc1cc(C)ccc1C (racemic) [Compound (1b), N-methyl-2-[2-(2,5-dimethylphenoxy)methyl]phenyl-2-methoxyacetamide]",Fresh weight of above-ground part,[1]; spray 10 ppm,0.62 g
same,Damage score,[1]; spray 10 ppm,30
same,Fresh weight of above-ground part,[1]; spray 30 ppm,0.72 g
same,Damage score,[1]; spray 30 ppm,38
same,Fresh weight of above-ground part,[1]; spray 100 ppm,0.92 g
same,Damage score,[1]; spray 100 ppm,81
same,Fresh weight of above-ground part,[1]; spray 250 ppm,0.94 g
same,Damage score,[1]; spray 250 ppm,68
same,yield of the seeds calculated presuming 9% seed water content,[2],4.55 tons/hectare
same,percentage of green pods,[3],22.25%
same,percentage of green leaves among the leaves upper to the lowest ear (average),[4]; foliage spraying 100 g per hectare at 111 days (R3),41.3%
same,percentage of green leaves among the leaves upper to the lowest ear (average),[4]; foliage spraying 300 g per hectare at 111 days (R3),45.6%
same,increase in amount of the harvested grains as compared with the non-treated group,[5]; seeds treated with 25 μg per seed,11%
same,increase in amount of the harvested grains as compared with the non-treated group,[5]; seeds treated with 125 μg per seed,9%
